Test results reported in patent US20240366813A1, “PEPTIDE-UREA DERIVATIVE, PHARMACEUTICAL COMPOSITION CONTAINING SAME AND APPLICATION THEREOF” (Bivision Pharmaceuticals, Inc., priority 0001, published 2024).
Several values for one entry are separate records, joined by “and”; a condition that tells them apart may be missing. Equal values may be shown once.

Assays:
[1] = tested on: PSMA-positive cells LNCap; assay: Uptake of labeled compounds by PSMA-positive cells LNCap; assay type: cell-based; settings: 37° C., 0.5 h
Protocol: LNCap cells (Shangcheng Beina Chuanglian Biotechnology Co., Ltd., Industrial Park, Chengguan Town, Shangcheng County, Xinyang City, Henan Province) were revived and passaged for expansion. After the cells were expanded to a sufficient amount, cells were seeded in a 24-well plate at a density of 1×10^4 cells/well. Uptake tests were performed when cells grew to 80%-90% confluence.
The above labeled compounds ^177Lu-E1, ^177Lu-E2, ^177Lu-E3, ^177Lu-E5, ^177Lu-E9, ^177Lu-E14 and ^177Lu-PSMA-617 were diluted with serum-free medium into 10000, 1000, 100, 10, 1, 0.1 and 0 nM. 1 mL of the diluted solution was added to a 24-well plate, and incubated at 37° C. for 0.5 h. The supernatant was discarded and the cells were washed 3 times with PBS. 250 μL of 1M NaOH solution was added to each well. The cells were pipetted until they were completely dissolved, and transferred to a scintillation vial. 250 μL of NaOH solution was added to each well again to wash the bottom of the well and transferred to a scintillation vial. 2 mL of scintillation fluid was added to each scintillation vial and shaken well. A liquid scintillation counter was used to detect radioactive counts in each vial.

[2] = In vivo metabolism test of 177Lu-labeled complex in SD rats (plasma radioactive counts); settings: for plasma radioactive counts: individual rat, 100 μL plasma; for plasma radioactive counts, MEAN: mean of rats
Protocol: Eighteen SD rats (Hangzhou Ziyuan Experimental Animal Technology Co., Ltd.), male, weighing 180-200 g, were randomly divided into 6 groups, 3 rats in each group. […] of the labeled precursor compound was injected into the tail vein of each mouse. 250 μL of orbital blood was collected into anticoagulant tubes at 5 min, 0.5 h, 1 h, 2 h, 4 h, 8 h and 24 h after administration. Blood was centrifuged at 3000 rpm for 10 min, and 100 μL of plasma was taken into scintillation vials. 2 mL of scintillation fluid was added to each scintillation vial and shaken well. A liquid scintillation counter was used to detect radioactive counts in each vial.

[3] = 5 min after tail vein injection
[4] = 0.5 h after tail vein injection

Row | Compound | uptake by LNCap cells ([1]; 0.1 nM) [cpm] | uptake by LNCap cells ([1]; 1 nM) [cpm] | uptake by LNCap cells ([1]; 10 nM) [cpm] | uptake by LNCap cells ([1]; 100 nM) [cpm] | uptake by LNCap cells ([1]; 1000 nM) [cpm] | uptake by LNCap cells ([1]; 10000 nM) [cpm] | plasma radioactive counts [2, 3] | plasma radioactive counts [2, 4] | plasma radioactive counts ([2]; 1 h after tail vein injection) | plasma radioactive counts ([2]; 2 h after tail vein injection) | plasma radioactive counts ([2]; 4 h after tail vein injection) | plasma radioactive counts ([2]; 8 h after tail vein injection) | plasma radioactive counts ([2]; 24 h after tail vein injection) | plasma radioactive counts, MEAN [2, 3] [cpm] | plasma radioactive counts, MEAN [2, 4] [cpm] | plasma radioactive counts, MEAN ([2]; 1 h after tail vein injection) [cpm] | plasma radioactive counts, MEAN ([2]; 2 h after tail vein injection) [cpm] | plasma radioactive counts, MEAN ([2]; 4 h after tail vein injection) [cpm] | plasma radioactive counts, MEAN ([2]; 8 h after tail vein injection) [cpm] | plasma radioactive counts, MEAN ([2]; 24 h after tail vein injection) [cpm]
1 | O=C([O-])CN1CCN(CC(=O)[O-])CCN(CC(=O)Nc2nc3cc(C(=O)NC(Cc4ccc5ccccc5c4)C(=O)NCCCCC(NC(=O)NC(CCC(=O)O)C(=O)O)C(=O)O)ccc3s2)CCN(CC(=O)[O-])CC1.[177Lu+3] (stereo not shown) [^177Lu-E1] | 39 | 169 | 77 | 121 | 331 | 1595 | 28305 cpm and 17143 cpm | 9829 cpm and 8252 cpm | 3505 cpm and 3389 cpm | 615 cpm and 1288 cpm | 163 cpm and 315 cpm | 174 cpm and 179 cpm | 151 cpm and 169 cpm | 22724 | 9041 | 3447 | 952 | 239 | 177 | 160
2 | O=C([O-])CN1CCN(CC(=O)[O-])CCN(CC(=O)N2CC3(CCC(C(=O)NC(Cc4ccc5ccccc5c4)C(=O)NCCCCC(NC(=O)NC(CCC(=O)O)C(=O)O)C(=O)O)CC3)C2)CCN(CC(=O)[O-])CC1.[177Lu+3] (stereo not shown) [^177Lu-E2] | 29 | 91 | 344 | 596 | 775 | 1328 | 37703 cpm and 41406 cpm | 18427 cpm and 15030 cpm | 7473 cpm and 5428 cpm | 1863 cpm and 1189 cpm | 296 cpm and 219 cpm | 178 cpm and 190 cpm | 167 cpm and 170 cpm | 39555 | 16729 | 6451 | 1526 | 258 | 184 | 169
